Source: the supplement of paper PMC4862054
Values joined by “and” are separate entries in the source; they are usually repeats but may differ in a detail not shown here. Equal entries are not always repeated.

Assays:
Assay in all cases: normalised viability (% of control), CellTiter-Blue; higher = more viable cells (about 100 = DMSO control)
Settings in all cases: incubation time: 72 h
HDQ-P1 = test system: HDQ-P1
In short: (§1)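 Vehicle (100) and a positive kill control (0) anchored the normalisation of each plate, and Z'-factor was used for quality control. Breast cancer cell lines in 20 µl suspension were incubated 72 h over compound in 5 µl medium in 384-well plates, followed by CellTiter-Blue at 560/590 nm. The value is normalised viability at a single listed concentration of the series.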

CAL-148 = test system: CAL-148
In short: as §1

BT-549 = test system: BT-549
In short: as §1

CAL-120 = test system: CAL-120
In short: as §1

SK-BR-3 = test system: SK-BR-3
In short: as §1

CAL-85-1 = test system: CAL-85-1
In short: as §1

BT-474 = test system: BT-474
In short: as §1

HCC1599 = test system: HCC1599
In short: as §1

MDA-MB-453 = test system: MDA-MB-453
In short: as §1

## Nc1cccc2c1CN(C1CCC(=O)NC1=O)C2=O (stereo unspecified) [Lenalidomide]
HDQ-P1; 3 nM
  normalised viability: 95.7% and 91.8%
HDQ-P1; 30 nM
  normalised viability: 106% and 83.8%
HDQ-P1; 100 nM
  normalised viability: 92.3% and 86.8%
CAL-148; 3 nM
  normalised viability: 78.6% and 91.8%
CAL-148; 30 nM
  normalised viability: 86% and 94.3%
CAL-148; 100 nM
  normalised viability: 86.9% and 89.8%
BT-549; 10 nM
  normalised viability: 94.5% and 88.9%
BT-549; 1000 nM
  normalised viability: 94.5% and 95.7%
BT-549; 10000 nM
  normalised viability: 89.3% and 101%
CAL-120; 10 nM
  normalised viability: 76% and 81.3%
CAL-120; 1000 nM
  normalised viability: 80.2% and 81.1%
CAL-120; 10000 nM
  normalised viability: 84.4% and 80.2%
SK-BR-3; 10 nM
  normalised viability: 104% and 93.7%
SK-BR-3; 1000 nM
  normalised viability: 94.7% and 95.1%
SK-BR-3; 10000 nM
  normalised viability: 86.8% and 101%
CAL-85-1; 3 nM
  normalised viability: 82.3% and 93%
CAL-85-1; 30 nM
  normalised viability: 76.5% and 84.1%
CAL-85-1; 100 nM
  normalised viability: 86% and 96.7%
BT-474; 10 nM
  normalised viability: 104% and 109%
BT-474; 1000 nM
  normalised viability: 117% and 107%
BT-474; 10000 nM
  normalised viability: 117% and 104%
HCC1599; 10 nM
  normalised viability: 82.8% and 82.1%
HCC1599; 1000 nM
  normalised viability: 91.9% and 86.6%
HCC1599; 10000 nM
  normalised viability: 113% and 103%
MDA-MB-453; 3 nM
  normalised viability: 107% and 106%
MDA-MB-453; 30 nM
  normalised viability: 89.3% and 94.9%
MDA-MB-453; 100 nM
  normalised viability: 96.6% and 103%

## C[C@]12O[C@H](C[C@]1(O)CO)n1c3ccccc3c3c4c(c5c6ccccc6n2c5c31)CNC4=O [Lestaurtinib]
HDQ-P1; 0.3 nM
  normalised viability: 119%
HDQ-P1; 3 nM
  normalised viability: 112%
HDQ-P1; 10 nM
  normalised viability: 126%
CAL-148; 0.3 nM
  normalised viability: 96.8%
CAL-148; 3 nM
  normalised viability: 98.6%
CAL-148; 10 nM
  normalised viability: 98.3%
BT-549; 1 nM
  normalised viability: 88.3%
BT-549; 100 nM
  normalised viability: 101%
BT-549; 1000 nM
  normalised viability: 41.8%
CAL-120; 1 nM
  normalised viability: 108%
CAL-120; 100 nM
  normalised viability: 60.7%
CAL-120; 1000 nM
  normalised viability: 47.5%
SK-BR-3; 1 nM
  normalised viability: 108%
SK-BR-3; 100 nM
  normalised viability: 102%
SK-BR-3; 1000 nM
  normalised viability: 37.2%
CAL-85-1; 0.3 nM
  normalised viability: 106%
CAL-85-1; 3 nM
  normalised viability: 97.8%
CAL-85-1; 10 nM
  normalised viability: 102%
BT-474; 1 nM
  normalised viability: 120%
BT-474; 100 nM
  normalised viability: 110%
BT-474; 1000 nM
  normalised viability: 69%
HCC1599; 1 nM
  normalised viability: 102%
HCC1599; 100 nM
  normalised viability: 94.6%
HCC1599; 1000 nM
  normalised viability: 64.8%
MDA-MB-453; 0.3 nM
  normalised viability: 126%
MDA-MB-453; 3 nM
  normalised viability: 98.4%
MDA-MB-453; 10 nM
  normalised viability: 104%

## O=C1c2c(O)ccc(O)c2C(=O)c2c(NCCNCCO)ccc(NCCNCCO)c21 [Mitoxantrone]
HDQ-P1; 0.3 nM
  normalised viability: 74.8%
HDQ-P1; 3 nM
  normalised viability: 86.7%
HDQ-P1; 10 nM
  normalised viability: 79.2%
CAL-148; 0.3 nM
  normalised viability: 91.2%
CAL-148; 3 nM
  normalised viability: 91.5%
CAL-148; 10 nM
  normalised viability: 57.9%
BT-549; 1 nM
  normalised viability: 82.4%
BT-549; 100 nM
  normalised viability: 69%
BT-549; 1000 nM
  normalised viability: 35.4%
CAL-120; 1 nM
  normalised viability: 73.8%
CAL-120; 100 nM
  normalised viability: 44.6%
CAL-120; 1000 nM
  normalised viability: 17.3%
SK-BR-3; 1 nM
  normalised viability: 84.2%
SK-BR-3; 100 nM
  normalised viability: 34.6%
SK-BR-3; 1000 nM
  normalised viability: 14.8%
CAL-85-1; 0.3 nM
  normalised viability: 90.3%
CAL-85-1; 3 nM
  normalised viability: 84.3%
CAL-85-1; 10 nM
  normalised viability: 86.5%
BT-474; 1 nM
  normalised viability: 99.4%
BT-474; 100 nM
  normalised viability: 71.1%
BT-474; 1000 nM
  normalised viability: 42%
HCC1599; 1 nM
  normalised viability: 97.6%
HCC1599; 100 nM
  normalised viability: 73.3%
HCC1599; 1000 nM
  normalised viability: 69.8%
MDA-MB-453; 0.3 nM
  normalised viability: 98.7%
MDA-MB-453; 3 nM
  normalised viability: 87.1%
MDA-MB-453; 10 nM
  normalised viability: 74%
